# Experimental data published in ChEMBL document CHEMBL3244062, “3-Halo-5,7-dimethylpyrazolo [1,5-a]pyrimidines, a nonbenzodiazepinoid class of antianxiety agents devoid of potentiation of central nervous system depressant effects of ethanol or barbiturates” (J Med Chem, 1977).
# Active and inactive are the calls of the source. The calls are words filed in the database; no cut-off is given here.
# Test system: Rattus norvegicus
# Assay: Anticonvulsant activity in ip dosed rat assessed as impairment of motor performance by forced motor activity test
# Format: functional
# Settings: not given
row,Structure (SMILES),ED50 [mg/kg]
1,Cc1cc(C)n2ncc(Cl)c2n1,32.7
2,Cc1cc(C)n2nccc2n1,65
3,Cc1cc(C)n2ncc(Br)c2n1,18.4
4,Cc1cc(C)n2ncc(I)c2n1,19.8
5,CN1C(=O)CN=C(c2ccccc2)c2cc(Cl)ccc21 [DIAZEPAM],5.6

# Test system: Rattus norvegicus
# Assay: Anticonvulsant activity in ip dosed rat assessed as impairment of motor performance by spontaneous motor activity test
# Format: functional
# Settings: not given
row,Structure (SMILES),ED50 [mg/kg]
1,Cc1cc(C)n2ncc(Cl)c2n1,38.6
2,Cc1cc(C)n2nccc2n1,79
3,Cc1cc(C)n2ncc(Br)c2n1,27.1
4,Cc1cc(C)n2ncc(I)c2n1,24.9
5,CN1C(=O)CN=C(c2ccccc2)c2cc(Cl)ccc21 [DIAZEPAM],9.2

# Test system: Mus musculus
# Assay: […] in po dosed mouse assessed as potentiation of ethanol-induced loss of the righting reflex in 50% mouse
# Format: functional
# Settings: not given
row,Structure (SMILES),HD50 [mg/kg]
1,Cc1cc(C)n2ncc(Cl)c2n1,391.7
2,Cc1cc(C)n2nccc2n1,228.6
3,Cc1cc(C)n2ncc(Br)c2n1,236.8
4,Cc1cc(C)n2ncc(I)c2n1,296.1
5,CN1C(=O)CN=C(c2ccccc2)c2cc(Cl)ccc21 [DIAZEPAM],1.5
6,CNC1=Nc2ccc(Cl)cc2C(c2ccccc2)=[N+]([O-])C1 [CHLORDIAZEPOXIDE],12.6

# Test system: Mus musculus
# Assay: […] in po dosed mouse assessed as potentiation of sodium barbital-induced loss of the righting reflex in 50% mouse
# Format: functional
# Settings: not given
row,Structure (SMILES),HD50 [mg/kg]
1,Cc1cc(C)n2ncc(Cl)c2n1,60.9
2,Cc1cc(C)n2nccc2n1,118.8
3,Cc1cc(C)n2ncc(Br)c2n1,61.9
4,Cc1cc(C)n2ncc(I)c2n1,142.8
5,CN1C(=O)CN=C(c2ccccc2)c2cc(Cl)ccc21 [DIAZEPAM],0.5
6,CNC1=Nc2ccc(Cl)cc2C(c2ccccc2)=[N+]([O-])C1 [CHLORDIAZEPOXIDE],6.4

# Test system: Rattus norvegicus
# Assay: Antipsychotic activity in ip dosed rat assessed as reduction in avoidance responding by Sidman avoidance test
# Format: functional
# Settings: not given
row,Structure (SMILES),ED50 [mg/kg]
1,Cc1cc(C)n2ncc(Cl)c2n1,31.8
2,Cc1cc(C)n2nccc2n1,60.3
3,Cc1cc(C)n2ncc(F)c2n1,40.2
4,CN(C)CCCN1c2ccccc2Sc2ccc(Cl)cc21 [CHLORPROMAZINE],3.7
5,Cc1cc(C)n2ncc(Br)c2n1,29.5
6,Cc1cc(C)n2ncc(I)c2n1,39.1
7,CN1C(=O)CN=C(c2ccccc2)c2cc(Cl)ccc21 [DIAZEPAM],11.3
8,CNC1=Nc2ccc(Cl)cc2C(c2ccccc2)=[N+]([O-])C1 [CHLORDIAZEPOXIDE],14.3

# Test system: Rattus norvegicus
# Assay: Antianxiety activity in ip dosed rat assessed as punished responding by conditioned lick suppression behavioral test
# Format: functional
# Settings: read-out: MED
row,Structure (SMILES),minimal effective dose [mg/kg]
1,Cc1cc(C)n2ncc(Cl)c2n1,10
2,Cc1cc(C)n2nccc2n1,40
3,Cc1cc(C)n2ncc(F)c2n1,40
4,Cc1cc(C)n2ncc(Br)c2n1,10
5,Cc1cc(C)n2ncc(I)c2n1,20
6,CN1C(=O)CN=C(c2ccccc2)c2cc(Cl)ccc21 [DIAZEPAM],20
7,CNC1=Nc2ccc(Cl)cc2C(c2ccccc2)=[N+]([O-])C1 [CHLORDIAZEPOXIDE],20

# Test system: Rattus norvegicus
# Assay: Antianxiety activity in po dosed rat assessed as punished responding by conditioned lick suppression behavioral test
# Format: functional
# Settings: read-out: MED
row,Structure (SMILES),minimal effective dose [mg/kg]
1,Cc1cc(C)n2ncc(Cl)c2n1,10
2,Cc1cc(C)n2nccc2n1,60
3,Cc1cc(C)n2ncc(F)c2n1,80
4,Cc1cc(C)n2ncc(Br)c2n1,20
5,Cc1cc(C)n2ncc(I)c2n1,120
6,CN1C(=O)CN=C(c2ccccc2)c2cc(Cl)ccc21 [DIAZEPAM],20
7,CNC1=Nc2ccc(Cl)cc2C(c2ccccc2)=[N+]([O-])C1 [CHLORDIAZEPOXIDE],60

# Test system: Mus musculus
# Assay: Antianxiety activity in mouse assessed as ataxia, catatonia, and alterations in motor activity and startle reflex at 50 mg/kg, ip after 30 to 120 mins
# Format: functional, organism-based
# Set-up: dose 50 mg/kg
# Settings: not given
row,Structure (SMILES),Activity
1,Cc1cc(C)n2ncc(N)c2n1,inactive
2,Cc1cc(C)n2[nH]c(=O)cc2n1,inactive
3,Cc1cc(C)n2ncc(C#N)c2n1,inactive
4,Cc1cc(C)n2ncc(Cl)c2n1,Active
5,Cc1cc(C)n2ncc(C)c2n1,Active
6,Cc1cc(C)n2ncc(S(N)(=O)=O)c2n1,inactive
7,Cc1cnc2ccnn2c1,inactive
8,Cc1cc(C)n2nccc2n1,Active
9,c1cnc2ccnn2c1,Active
10,CCCc1cc(C)nc2c(Br)cnn12,Active
11,Cc1cc(C)n2ncc(F)c2n1,Active
12,Cc1cc(C)n2ncc(-c3ccccc3)c2n1,inactive
13,Cc1ccnc2ccnn12,inactive
14,Cc1cc(C)n2ncc(C(N)=O)c2n1,Active
15,Cc1cc(C)n2ncc(S(=O)(=O)N3CCN(C)CC3)c2n1,inactive
16,FC(F)(F)c1cc(C(F)(F)F)n2nccc2n1,inactive
17,Cc1ccn2nccc2n1,Active
18,Cc1cc(C)n2ncc(S(=O)(=O)Cl)c2n1,inactive
19,Cc1cc(C)n2ncc(Br)c2n1,Active
20,Cc1ccnc2c(Br)cnn12,inactive

row,Structure (SMILES),Activity
1,Cc1cc(C)n2ncc(I)c2n1,Active
2,CCc1cc(CC)n2ncc(Br)c2n1,Active
3,Brc1cnn2cccnc12,inactive
4,Cc1cc(C)n2ncc(N=O)c2n1,inactive
5,Cc1cc(C)n2ncc(C(N)=S)c2n1,inactive
6,Cc1cc(C)n2nc(O)c(Br)c2n1,inactive
7,Cc1cc(C)n2ncc(/C(N)=N/O)c2n1,inactive
8,CC(=O)Cc1cc(C)nc2ccnn12,Active
9,Cc1cn2ncc(Br)c2nc1C,inactive
10,Cc1cn2nccc2nc1C,inactive
11,CCCCc1cc(CCCC)n2ncc(Br)c2n1,inactive
12,CCOC(=O)c1cnn2c(C)cc(C)nc12,inactive
13,Cc1cc(C)n2ncc(S)c2n1,inactive
14,Cc1cc(C)n2nc(Br)cc2n1,Active
15,Cc1cc(C)n2ncc(SC#N)c2n1,inactive
16,CC(C)c1cc(C(C)C)n2ncc(Br)c2n1,inactive
17,Cc1cc(C)n2ncc(C(=O)C(F)(F)F)c2n1,inactive
18,Cc1cc(C)n2ncc([N+](=O)[O-])c2n1,inactive
19,Cc1cc(C)n2nc(Cl)cc2n1,Active
20,CCc1cc(C)nc2c(Br)cnn12,Active

# Test system: Mus musculus
# Assay: Antianxiety activity in mouse assessed as ataxia, catatonia, and alterations in motor activity and startle reflex at 100 mg/kg, ip after 30 to 120 mins
# Format: functional, organism-based
# Set-up: dose 100 mg/kg
# Settings: not given
row,Structure (SMILES),Activity
1,Cc1cc(C)n2ncc(N)c2n1,inactive
2,Cc1cc(C)n2[nH]c(=O)cc2n1,inactive
3,Cc1cc(C)n2ncc(C#N)c2n1,inactive
4,Cc1cc(C)n2ncc(Cl)c2n1,Active
5,Cc1cc(C)n2ncc(C)c2n1,Active
6,Cc1cc(C)n2ncc(S(N)(=O)=O)c2n1,inactive
7,Cc1cnc2ccnn2c1,inactive
8,Cc1cc(C)n2nccc2n1,Active
9,c1cnc2ccnn2c1,Active
10,CCCc1cc(C)nc2c(Br)cnn12,Active
11,Cc1cc(C)n2ncc(F)c2n1,Active
12,Cc1cc(C)n2ncc(-c3ccccc3)c2n1,inactive
13,Cc1ccnc2ccnn12,inactive
14,Cc1cc(C)n2ncc(C(N)=O)c2n1,Active
15,Cc1cc(C)n2ncc(S(=O)(=O)N3CCN(C)CC3)c2n1,inactive
16,FC(F)(F)c1cc(C(F)(F)F)n2nccc2n1,inactive
17,Cc1ccn2nccc2n1,Active
18,Cc1cc(C)n2ncc(S(=O)(=O)Cl)c2n1,inactive
19,Cc1cc(C)n2ncc(Br)c2n1,Active
20,Cc1ccnc2c(Br)cnn12,inactive

row,Structure (SMILES),Activity
1,Cc1cc(C)n2ncc(I)c2n1,Active
2,CCc1cc(CC)n2ncc(Br)c2n1,Active
3,Brc1cnn2cccnc12,inactive
4,Cc1cc(C)n2ncc(N=O)c2n1,inactive
5,Cc1cc(C)n2ncc(C(N)=S)c2n1,inactive
6,Cc1cc(C)n2nc(O)c(Br)c2n1,inactive
7,Cc1cc(C)n2ncc(/C(N)=N/O)c2n1,inactive
8,CC(=O)Cc1cc(C)nc2ccnn12,Active
9,Cc1cn2ncc(Br)c2nc1C,inactive
10,Cc1cn2nccc2nc1C,inactive
11,CCCCc1cc(CCCC)n2ncc(Br)c2n1,inactive
12,CCOC(=O)c1cnn2c(C)cc(C)nc12,inactive
13,Cc1cc(C)n2ncc(S)c2n1,inactive
14,Cc1cc(C)n2nc(Br)cc2n1,Active
15,Cc1cc(C)n2ncc(SC#N)c2n1,inactive
16,CC(C)c1cc(C(C)C)n2ncc(Br)c2n1,inactive
17,Cc1cc(C)n2ncc(C(=O)C(F)(F)F)c2n1,inactive
18,Cc1cc(C)n2ncc([N+](=O)[O-])c2n1,inactive
19,Cc1cc(C)n2nc(Cl)cc2n1,Active
20,CCc1cc(C)nc2c(Br)cnn12,Active

# Test system: not listed separately
# Assay: Acute toxicity in mouse measured following single po dose
# Format: organism-based
# Settings: in vivo
row,Structure (SMILES),LD50 [mg/kg]
1,Cc1cc(C)n2ncc(Cl)c2n1,599
2,Cc1cc(C)n2nccc2n1,928
3,Cc1cc(C)n2ncc(Br)c2n1,1350
4,Cc1cc(C)n2ncc(I)c2n1,> 3000
5,CNC1=Nc2ccc(Cl)cc2C(c2ccccc2)=[N+]([O-])C1 [CHLORDIAZEPOXIDE],939

# Test system: not listed separately
# Assay: Acute toxicity in mouse measured following single ip dose
# Format: organism-based
# Settings: in vivo
row,Structure (SMILES),LD50 [mg/kg]
1,Cc1cc(C)n2ncc(Cl)c2n1,369
2,Cc1cc(C)n2nccc2n1,537
3,Cc1cc(C)n2ncc(Br)c2n1,458
4,Cc1cc(C)n2ncc(I)c2n1,612
5,CNC1=Nc2ccc(Cl)cc2C(c2ccccc2)=[N+]([O-])C1 [CHLORDIAZEPOXIDE],183

# Test system: Mus musculus
# Assay: Antiaggressive activity in mouse assessed as change in foot shock-induced fighting behavior at 20 mg/kg, po after 30 mins
# Format: functional
# Settings: not given
row,Structure (SMILES),Activity [%]
1,Cc1cc(C)n2ncc(Cl)c2n1,-3
2,Cc1cc(C)n2ncc(Br)c2n1,30

# Test system: Mus musculus
# Assay: Antiaggressive activity in mouse assessed as change in foot shock-induced fighting behavior at 20 mg/kg, po after 90 mins
# Format: functional
# Settings: not given
row,Structure (SMILES),Activity [%]
1,Cc1cc(C)n2ncc(Cl)c2n1,22
2,Cc1cc(C)n2ncc(Br)c2n1,13

# Test system: Mus musculus
# Assay: Antiaggressive activity in mouse assessed as change in foot shock-induced fighting behavior at 80 mg/kg, po after 30 mins
# Format: functional
# Settings: not given
row,Structure (SMILES),Activity [%]
1,Cc1cc(C)n2ncc(Cl)c2n1,-89
2,Cc1cc(C)n2ncc(Br)c2n1,-46

# Test system: Mus musculus
# Assay: Antiaggressive activity in mouse assessed as change in foot shock-induced fighting behavior at 80 mg/kg, po after 90 mins
# Format: functional
# Settings: not given
row,Structure (SMILES),Activity [%]
1,Cc1cc(C)n2ncc(Cl)c2n1,-57
2,Cc1cc(C)n2ncc(Br)c2n1,-8

# Test system: Rattus norvegicus
# Assay: Antiaggressive activity in Long-Evans black-hooded rat assessed as suppression of muricide behavior for 2 mins period at 20 mg/kg, po
# Format: functional
# Settings: Long-Evans black-hood
row,Structure (SMILES),inhibition in vivo at 20 mg/kg [%]
1,Cc1cc(C)n2ncc(Cl)c2n1,0
2,Cc1cc(C)n2ncc(Br)c2n1,0

# Test system: Rattus norvegicus
# Assay: Antiaggressive activity in Long-Evans black-hooded rat assessed as suppression of muricide behavior for 2 mins period at 80 mg/kg, po
# Format: functional
# Settings: Long-Evans black-hood
row,Structure (SMILES),inhibition in vivo at 80 mg/kg [%]
1,Cc1cc(C)n2ncc(Cl)c2n1,80
2,Cc1cc(C)n2ncc(Br)c2n1,60

# Test system: Rhesus monkey
# Assay: Antiaggressive activity in Rhesus monkey assessed as reduction in biting, pushing or attacking the pole responses at 25 to 100 mg/mg, po after 0 to 6 hrs
# Format: functional, organism-based
# Settings: Macaca mulatta
row,Structure (SMILES),inhibition
1,Cc1cc(C)n2ncc(Cl)c2n1,inactive
2,Cc1cc(C)n2ncc(Br)c2n1,inactive

# Test system: Rhesus monkey
# Assay: Antiaggressive activity in Rhesus monkey assessed as reduction in biting, pushing or attacking the pole responses at 2.5 to 10 mg/mg, po after 0 to 6 hrs
# Format: functional, organism-based
# Settings: Macaca mulatta
row,Structure (SMILES),inhibition
1,CN1C(=O)CN=C(c2ccccc2)c2cc(Cl)ccc21 [DIAZEPAM],inactive
